# Data: publication PMC9975039 (Oncogene, 2023)
# Molecular target: T1, AKR1C3 (Homo sapiens, UniProt P42330)
# T1 sequence (P42330 1-323): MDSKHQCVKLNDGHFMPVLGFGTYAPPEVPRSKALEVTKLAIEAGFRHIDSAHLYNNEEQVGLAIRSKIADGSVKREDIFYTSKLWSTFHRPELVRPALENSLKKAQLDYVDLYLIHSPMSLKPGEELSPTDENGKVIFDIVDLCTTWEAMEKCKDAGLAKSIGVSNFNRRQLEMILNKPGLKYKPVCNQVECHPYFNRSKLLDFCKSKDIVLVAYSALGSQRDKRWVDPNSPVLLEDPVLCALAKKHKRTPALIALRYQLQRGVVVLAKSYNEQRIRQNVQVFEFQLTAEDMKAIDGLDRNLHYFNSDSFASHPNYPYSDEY
# Assay: S-tetralol oxidation assay, recombinant AKR1C3, absorbance at […] nm
# Assay type: biochemical
compound,measurement,value
"NS(=O)(=O)c1ccc(-n2nc(CCCNC(=O)Nc3ccc(C(F)(F)F)cc3)cc2-c2ccccc2)cc1 [PTUPB, 4-(5-phenyl-3-{3-[3-(4-trifluoromethyl-phenyl)-ureido]-propyl}-pyrazol-1-yl)-benzenesulfonamide]",IC50,~65 nM
